According to patent US20230183243A1, “HETEROARYL DERIVATIVES AND PHARMACEUTICAL COMPOSITION COMPRISING SAME AS ACTIVE INGREDIENT” (VORONOI INC., priority 2019, published 2023):

Legend:
FLT3(D835V) = biological target: T1, FLT3(D835V) (Homo sapiens, UniProt P36888, D835V); test: ScanMAX Kinase panel (DiscoverX); format: binding; details: read-out: % Cont @ 1 μM
T1 construct: purchased DiscoverX Corp. (ScanMAX Kinase panel, commissioned)
Experimental: (§1) Specifically, the enzyme (kinase) selectivity of the compound of Example 7 selected from the Example compounds of the present invention was measured by commissioning DiscoverX Corp., and an experiment was performed using a panel for ScanMAX™ Kinase analysis.
(§2) In this case, the concentration of a drug treated with the enzyme was set at 1 μM in DMSO, and percent control (% control) was defined in the same manner as in the following Expression 1.
(§3) (Example compound−Positive control)/(Negative control−Positive control)×100 [Expression 1]
(§4) Wherein the positive control represents a compound having a percent control of 0%, and the negative control represents a compound having a percent control of 100% in DMSO. For the enzyme selectivity of the present invention, the compound was also judged to have activity against the corresponding enzyme when the percent control for each of the enzymes was <30% (i.e., less than 30%).

MEK3 = biological target: T2, MEK3 (Homo sapiens, UniProt P46734); test: ScanMAX Kinase panel (DiscoverX); format: binding; details: read-out: % Cont @ 1 μM
T2 construct: purchased DiscoverX Corp. (ScanMAX Kinase panel, commissioned)
Experimental: as §1, §2, §3, §4

LRRK2 = LRRK2 (Homo sapiens, UniProt Q5S007); test: LRRK2 enzyme activity, ADP-Glo kinase assay; format: biochemical; set-up: purchased Invitrogen PR8604B; details: purified human LRRK2, ATP 10 μM, 25° C., 2 hours
Experimental: To evaluate the inhibitory activity of the compound according to the present invention against LRRK2 and JNKs, an experiment was performed as follows.
The compound of Example 7 was reacted with a purified human LRRK2 (Invitrogen #PR8604B) enzyme to evaluate an ability of the compound of Example 7 to inhibit the enzyme using a method as described below. A composition of 40 mM Tris-HCl (pH 7.4), 20 mM MgCl2, 0.5 mg/mL BSA, and 50 μM DTT was used as a reaction buffer, and all reactions of test substances were performed in the reaction buffer. The compound was diluted […] from a 10 mM DMSO stock using a serial dilution method, and enzyme activity was measured at final compound concentrations of 50, 10, 2, 0.4, 0.08, 0.016, 0.0032, 0.00064, 0.000128, 0.0000256, 0.00000512, and 0.000001024 μM. In the test, purified ATP (10 μM) and an enzyme substrate (0.2 μg) were reacted with a human LRRK2 (25 ng) enzyme at 25° C. for 2 hours, and the enzyme activity was then determined using an in vitro ADP-Glo™ kinase assay (Promega). An enzyme-activity reaction solution, an ADP-Glo reaction solution, and an enzyme-ability detection solution were reacted at a ratio of 2:2:1 to measure a degree of inhibition of the enzyme activity with luminescence. […]

BxPC3 = test: Cell proliferation inhibition, carcinomas other than TNBC; format: cell-based; details: Homo sapiens, BXPC-3
Experimental: (§5) To check an ability to inhibit the growth of (MDA-MB-231) cells in two triple-negative breast cancer cell lines, a test was performed, as follows. Cells were seeded in 180 μL of a culture broth at a density of 2,000 to 3,000 cells/well in a white clear bottom 96-well plate (Corning) according to the growth ability of each cell, and then cultured for 24 hours under conditions of 5% CO2 and 37° C. Thereafter, the compound was prepared by diluting a 10 mM stock solution three-fold with 100% DMSO at a total of 12 concentrations so that a peak concentration of the compound was in a range of 10 mM to 0.05 μM, and the diluted compound was then diluted in each cell culture medium so that a final concentration of the compound was in a range of 100 μM to 0.5 nM. 20 μL of a diluted solution diluted with a medium was added to the cell solution in which cells were seeded in the 96-well plate on the previous day so that a final concentration of the diluted solution was in a range of 10 μM to 0.05 nM. Each of the cells was cultured for 5 days. To check cell viability, a mixture provided in a CellTiter-Glo® Luminescent Cell Viability Assay Kit (Promega) was added to each of the cultured cell media, and cultured for another 10 minutes under a condition of 37° C. Then, a degree of luminescence (fluorescence) was measured. A degree of inhibition of the cell growth according to the treatment concentration of each of the compounds was calculated based on the fluorescence of the solvent control cells which were not treated with the compound. In this case, the concentration of each of the compounds inhibiting 50% of the cell growth was determined to be a GI50 (nM) value, and calculated using Prism (Version 7.01; GraphPad) software.
(§6) Next, the activities of the Example compounds against various types of carcinomas other than the TNBC were evaluated in a similar manner as described above. In the following table, the following active value range (GI50 (nM)) was used to evaluate cell proliferation inhibitory activity.

DU145 = test: as above; format: cell-based; details: Homo sapiens, DU-145
Experimental: as §5, §6

HCT116 = test: as above; format: cell-based; details: Homo sapiens, HCT-116
Experimental: as §5, §6

LRRK2, sequence (Q5S007 970-2527 limits assumed): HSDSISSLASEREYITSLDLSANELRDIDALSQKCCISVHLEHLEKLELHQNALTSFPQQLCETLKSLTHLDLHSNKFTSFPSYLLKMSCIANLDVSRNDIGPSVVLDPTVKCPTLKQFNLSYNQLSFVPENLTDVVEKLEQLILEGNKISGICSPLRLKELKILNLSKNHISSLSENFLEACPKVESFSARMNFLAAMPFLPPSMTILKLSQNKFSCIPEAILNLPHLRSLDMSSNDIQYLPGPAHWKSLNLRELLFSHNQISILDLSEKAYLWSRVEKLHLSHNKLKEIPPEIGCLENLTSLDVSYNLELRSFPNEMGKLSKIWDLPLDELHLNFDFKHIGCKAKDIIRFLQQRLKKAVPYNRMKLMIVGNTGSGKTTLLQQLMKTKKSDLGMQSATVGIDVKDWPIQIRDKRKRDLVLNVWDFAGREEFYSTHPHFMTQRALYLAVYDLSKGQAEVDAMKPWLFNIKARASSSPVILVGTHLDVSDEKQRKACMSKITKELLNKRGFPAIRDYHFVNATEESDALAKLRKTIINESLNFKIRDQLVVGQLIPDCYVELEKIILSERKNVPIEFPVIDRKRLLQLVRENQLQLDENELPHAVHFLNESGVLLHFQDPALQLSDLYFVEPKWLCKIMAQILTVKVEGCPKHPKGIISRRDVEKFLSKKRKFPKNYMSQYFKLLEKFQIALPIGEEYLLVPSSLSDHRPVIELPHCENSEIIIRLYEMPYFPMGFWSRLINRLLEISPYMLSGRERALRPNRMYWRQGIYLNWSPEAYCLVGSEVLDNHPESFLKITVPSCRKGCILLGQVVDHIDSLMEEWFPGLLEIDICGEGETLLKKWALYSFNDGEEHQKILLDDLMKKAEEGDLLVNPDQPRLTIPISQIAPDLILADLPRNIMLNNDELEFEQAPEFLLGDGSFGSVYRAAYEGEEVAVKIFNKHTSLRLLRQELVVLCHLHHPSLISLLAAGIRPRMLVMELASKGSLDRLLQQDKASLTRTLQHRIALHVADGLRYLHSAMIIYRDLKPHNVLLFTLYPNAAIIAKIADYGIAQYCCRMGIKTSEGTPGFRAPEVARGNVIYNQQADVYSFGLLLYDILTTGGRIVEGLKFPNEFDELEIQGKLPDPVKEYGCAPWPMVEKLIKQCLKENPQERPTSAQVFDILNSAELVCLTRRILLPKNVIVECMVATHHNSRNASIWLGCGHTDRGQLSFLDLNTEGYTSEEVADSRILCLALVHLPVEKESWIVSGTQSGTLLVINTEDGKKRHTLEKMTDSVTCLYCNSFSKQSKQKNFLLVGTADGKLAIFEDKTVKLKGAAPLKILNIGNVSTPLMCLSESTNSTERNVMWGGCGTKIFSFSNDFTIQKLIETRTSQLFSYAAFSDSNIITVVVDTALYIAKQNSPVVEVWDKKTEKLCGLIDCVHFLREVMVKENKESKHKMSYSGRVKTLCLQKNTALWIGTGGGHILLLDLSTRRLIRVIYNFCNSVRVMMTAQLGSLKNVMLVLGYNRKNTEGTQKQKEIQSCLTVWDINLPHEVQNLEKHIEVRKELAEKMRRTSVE
T2 sequence (P46734 whole entry): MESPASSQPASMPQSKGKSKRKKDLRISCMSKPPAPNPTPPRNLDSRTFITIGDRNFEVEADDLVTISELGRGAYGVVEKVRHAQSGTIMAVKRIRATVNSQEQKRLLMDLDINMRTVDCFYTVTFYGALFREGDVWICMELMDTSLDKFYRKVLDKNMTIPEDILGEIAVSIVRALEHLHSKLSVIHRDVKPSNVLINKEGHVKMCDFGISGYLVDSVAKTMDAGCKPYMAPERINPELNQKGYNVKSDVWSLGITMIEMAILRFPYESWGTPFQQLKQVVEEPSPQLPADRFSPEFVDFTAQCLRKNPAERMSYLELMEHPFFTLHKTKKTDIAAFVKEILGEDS

| remaining binding at 1 µM (FLT3(D835V)) [%] | remaining binding at 1 µM (MEK3) [%] | IC50 (LRRK2) [nM] | GI50 (BxPC3) [nM] | GI50 (DU145) [nM] | GI50 (HCT116) [nM] | Compound |
| --- | --- | --- | --- | --- | --- | --- |
| 5.6 | 18 | < 1000 | – | – | – | COc1cc(-c2ccnn2C)ccc1Nc1nc(NC2CCCCC2)c2c(C#N)c[nH]c2n1 [Example 7, 4-(cyclohexylamino)-2-((2-methoxy-4-(1-methyl-1H-pyrazol-5-yl)phenyl)amino)-7H-pyrrolo[2,3-d] pyrimidine-5-carbonitrile] |
| – | – | – | < 100 | < 100 | < 100 | COc1cc(N2CCCC2=O)ccc1Nc1cc(NC2CCCCC2)c2c(C#N)c[nH]c2n1 [Example 64, 4-(cyclohexylamino)-6-((2-methoxy-4-(2-oxopyrrolidin-1-yl)phenyl)amino)-1H-pyrrolo[2,3-b] pyridine-3-carbonitrile] |
